The source of these data is patent US10543183B2, “Treatment and diagnosis of melanoma” (The Rockefeller University, priority 2012, dated 2020).

Counter-ions that a name gives are not always drawn.

The test system of one assay is melanoma cells. Put plainly: cell proliferation and viability assay. In kind it is cell-based, human. The following applies: for cell proliferation or cell viability rates: MeWo, HT-144, SK-Mel-334.2, 1 μM, 5 days. Here is the method:
To determine the effects of miR-199a or miR-1908 over-expression and combinatorial LNA-induced miRNA inhibition on cell proliferation, 2.5×10^4 cells were seeded in triplicate in 6-well plates, and viable cells were counted after 5 days. […] Viable cells were counted after 8, 24, 48, 72, and 120 hours.
After 5 days, the number of viable and dead cells was counted using the trypan blue dye (72-57-1, Sigma-Aldrich), which selectively labels dead cells.

Assay [1] deals with extracellular ApoE protein from melanoma cells. The experiment in a line: ApoE ELISA in conditioned media. In kind it is cell-based, human. The following applies: MeWo cells, 1 μM, 72 hours. The procedure: Extracellular ApoE levels in serum-free conditioned media from melanoma cells treated with DMSO, GW3965, or T0901317 (1 μM each) were quantified using the ApoE ELISA kit (Innovative Research) at 72 hours following treatment.
In general terms: In an ELISA, binding on a coated surface is turned into a signal by an enzyme label.

Assay [2] has as its system ApoE expression in human melanoma cells. Put plainly: ApoE mRNA expression by qRT-PCR in melanoma cells. It is filed as cell-based. The procedure: Total RNA was extracted from various cell lines using the miRvana kit (AM1560, Applied Biosystems, Austin, Tex.). The expression levels of mature miRNAs were quantified using the Taqman miRNA expression assay (4427975-0002228, Applied Biosystems). RNU44 was used as an endogenous control for normalization. For mRNA expression analyses, 600 ng of total RNA was reverse transcribed using the cDNA First-Strand Synthesis Kit (18080-051, Invitrogen), and roughly 200 ng of the resulting cDNA was then mixed with SYBR green PCR Master Mix (4309155, Applied Biosystems) and the appropriate primers. Each reaction was performed in quadruplicate, and mRNA expression was quantified by performing real-time PCR amplification using an ABI Prism 7900HT Real-Time PCR System (Applied Biosystems). GAPDH was used as an endogenous control for normalization. The following primers were used: […]
RNA was extracted from whole cell lysates using the Total RNA Purification Kit (17200, Norgen, Thorold, Canada). 600 ng of total RNA was then reverse transcribed into cDNA using the cDNA First-Strand Synthesis Kit (18080-051, Invitrogen), and quantitative real-time PCR amplification was performed as previously described (Pencheva et al., 2012) using an ABI Prism 7900HT Real-Time PCR System (Applied Biosystems, Austin, Tex.). Each PCR reaction was carried out in quadruplicates. Gene expression was normalized to GAPDH, which was used as an endogenous control.
For every sample, 600 ng of RNA was reverse transcribed into cDNA using the cDNA First-Strand Synthesis kit (Invitrogen). Approximately 200 ng of cDNA was mixed with SYBR® green PCR Master Mix and the corresponding forward and reverse primers specific for detection of human ApoE. Each reaction was carried out in quadruplicates, and ApoE mRNA expression levels were measured by quantitative real-time PCR amplification using an ABI Prism 7900HT Real-Time PCR System (Applied Biosystems). The relative ApoE expression was determined using the ΔΔCt method. GAPDH was used as an endogenous control for normalization purposes.
Background: Real-time PCR tracks product formation cycle by cycle.

Assay [3] relates to endothelial cells (HUVEC) recruited by human melanoma cells. The experiment in a line: trans-well endothelial recruitment assay. It is filed as cell-based. To be noted: for ability of melanoma cells to recruit endothelial cells: MeWo, HT-144, SK-Mel-2, SK-Mel-334.2, 1 μM for 72 hours. Here is the method: 5×10^4 cancer cells were seeded into 24-well plates approximately 24 hours prior to the start of the assay. HUVEC's were grown to 80% confluency and serum starved in EGM-2 media supplemented with 0.2% FBS for 16 hours. HUVEC's were then pulsed with Cell Tracker Red CMTPX dye (C34552, Invitrogen) for 45 minutes. Meanwhile, cancer cells were washed with PBS, 0.5 mL of 0.2% FBS EGM-2 media was added to each well, and a 3.0 μm HTS Fluoroblock insert (351151, BD Falcon, San Jose, Calif.) was placed into each well. 1×10^5 HUVEC's, resuspended in 0.5 mL of starvation media, were seeded into each trans-well insert, and the recruitment assay was allowed to proceed for 16-18 hours at 37° C. For neutralization antibody and/or recombinant protein experiments, antibody/protein was then added to each well at the appropriate concentration as indicated in the figures: 40 μg/mL anti-ApoE 1D7, 40 μg/mL anti-IgG, 100 μM rhApoE3, and 100 μM BSA. Upon completion of the assay, the inserts were processed and analyzed as described for the matrigel invasion assay above (See Matrigel Invasion Assay).
The endothelial recruitment assay was carried out as previously described (Pencheva et al., 2012; Png et al., 2012). Melanoma cells were treated with DMSO, GW3965, T0901317, or Bexarotene at 1 μM for 56 hours, after which 5×10^4 cells were seeded in a 24-well plate in the presence of each drug and allowed to attach for 16 hours prior to starting the assay. HUVEC cells were serum-starved overnight in EGM-2 media containing 0.2% FBS. The following day, 1×10^5 HUVEC cells were seeded into a 3.0 μm HTS Fluoroblock trans-well migration insert (351151, BD Falcon, San Jose, Calif.) fitted into each well containing cancer cells at the bottom. The HUVEC cells were allowed to migrate towards the cancer cells for 20 hours at 37° C., after which the inserts were processed as previously described (Pencheva et al., 2012). For ApoE antibody neutralization experiments, 40 μg/mL 1D7 anti-ApoE blocking antibody (Heart Institute, University of Ottawa, Ottawa, Canada) or 40 μg/mL anti-IgG control antibody (AB-108-C, R&D Systems, Minneapolis, Minn.) was added to each trans-well insert at the start of the assay.
Subsequently, 5×10^4 cancer cells were seeded into 24-well plates in the presence of each drug or DMSO and allowed to attach for 16 hours prior to starting the assay. Human umbilical vein endothelial cells (HUVEC cells) were serum-starved in 0.2% FBS-containing media overnight. The following day, 1×10^5 HUVEC cells were seeded into a 3.0 μm HTS Fluoroblock insert (351151, BD Falcon) fitted into each well containing the cancer cells at the bottom. The HUVEC cells were allowed to migrate towards the cancer cells for 20 hours, after which the inserts were washed in PBS, fixed in 4% PFA, labeled with DAPI, and mounted on slides. The basal side of each insert was imaged using an inverted fluorescence microscope (Zeiss Axiovert 40 CFL) at 5× magnification, and the number of DAPI-positive cells was quantified using ImageJ.

Turning to `O=S(=O)(c1ccccc1)N(CC(F)(F)F)c1ccc(C(O)(C(F)(F)F)C(F)(F)F)cc1` [T0901317 1], in the assay with melanoma cells, the “cell proliferation or cell viability rates” value is “did not affect”. Moreover, the “levels of secreted ApoE protein” value in assay [1] is given as “elevated levels”. The “potency of ApoE expression induction in vitro” value in assay [2] is “potently induce”. The “ability of melanoma cells to recruit endothelial cells” value in assay [3] is “consistently suppressed”.

On to “recombinant ApoE3: recombinant human ApoE3 (4696, BioVision)”, for which the “melanoma cell or endothelial cell in vitro proliferation” value in the assay on melanoma cells (100 μM) is listed as “did not affect”. In addition, the “endothelial recruitment by metastatic LM2 cells” value in assay [3] (100 μM added to cell media) is recorded as “significantly suppressed”. Further, the “ability of pre-treated endothelial cells to migrate towards highly metastatic cancer cells” value in assay [3] (endothelial cells pre-incubated 100 μM, 24 hours, LM2 cells) was “significantly reduced”.

Take `O=C(O)Cc1cccc(OCCCN(Cc2cccc(C(F)(F)F)c2Cl)CC(c2ccccc2)c2ccccc2)c1` [GW3965 2, 3-[3-[N-(2-Chloro-3-trifluoromethylbenzyl)-(2,2-diphenylethyl)amino]propyloxy] phenylacetic acid hydrochloride]: the “cell proliferation or cell viability rates” value in the assay with melanoma cells was “did not affect”. Also, the “levels of secreted ApoE protein” value in assay [1] is “elevated levels”. In addition, the “potency of ApoE expression induction in vitro” value in assay [2] is “potently induce”. Also, the “expression of ApoE” value in assay [2] (parental MeWo cells, 48 hours) is reported as “increased expression”. Further, the “ability of melanoma cells to recruit endothelial cells” value in assay [3] is recorded as “consistently suppressed”. The endothelial recruitment result in assay [3] (parental MeWo cells pre-treated for 48 hours) is listed as “decreased”.
